# Laboratory results published in patent publication US6955900B1, “Methods for producing polypeptide binding sites, monoclonal antibodies and compositions thereof” (The Scripps Research Institute, priority 1993, dated 2005).
# Assays:
# M21 melanoma cells = test: adhesion of M21 melanoma cells to immobilized Fab or vitronectin; format: cell-based, human
# Experimental: When Fab 9 that contained an RGD binding site was used in cell adhesion assays, it blocked the melanoma cell adhesion to immobilized vitronectin with an IC50 of 4 nM in contrast to the framework antibody pMT12 that had no effect on cell adhesion. […] This finding provides further evidence that Fab 9 is specific to beta 3 integrins. In similar assays, Fab 9 was compared to vitronectin in the ability to support cellular adhesion. Both proteins supported the binding of cells saturating at approximately 5 ug/ml of Fab or vitronectin.
# This assay, performed as described in Example 4, was performed with whole cell adhesion assays using M21 melanoma cells because they adhere to RGD-ligands primarily via αvβ3. M21 cells were allowed to adhere to a concentration range from 1 to 10 ug/ml of immobilized Fab 9 and MTF-10.
# αvβ3 = biological target: T1, αvβ3 (Homo sapiens, UniProt P05106+P06756); test: dissociation of 125I-ligand from purified αvβ3; conditions: two hour dissociation after four hours binding
# T1 construct: human placentas were obtained, cut into small pieces and extracted; from tissue
# Experimental: The binding of Fab 9 is shown as an example in this analysis, but its binding behavior was essentially identical to that of the MTF antibodies. The ability of ^125I-Fab 9 to dissociate from purified αvβ3 was compared to that of ^125I-vitronectin in purified ligand-receptor binding assays performed as described in Example 5B. Both ligands were incubated with purified αvβ3 for four hours. Then buffer containing radioligands was replaced with binding buffer lacking ligand to allow dissociation. An effort was also made to promote dissociation by adding 10 uM GRGDSP (SEQ ID NO 66) after the binding step. […] Following a two hour incubation to allow dissociation, buffer was removed and the amount of ^125I-ligand remaining bound to integrin was measured. The remaining bound ligand was compared to the amount of ligand bound at the beginning of the dissociation step.
# T1 sequence (P06756 31-889 limits assumed): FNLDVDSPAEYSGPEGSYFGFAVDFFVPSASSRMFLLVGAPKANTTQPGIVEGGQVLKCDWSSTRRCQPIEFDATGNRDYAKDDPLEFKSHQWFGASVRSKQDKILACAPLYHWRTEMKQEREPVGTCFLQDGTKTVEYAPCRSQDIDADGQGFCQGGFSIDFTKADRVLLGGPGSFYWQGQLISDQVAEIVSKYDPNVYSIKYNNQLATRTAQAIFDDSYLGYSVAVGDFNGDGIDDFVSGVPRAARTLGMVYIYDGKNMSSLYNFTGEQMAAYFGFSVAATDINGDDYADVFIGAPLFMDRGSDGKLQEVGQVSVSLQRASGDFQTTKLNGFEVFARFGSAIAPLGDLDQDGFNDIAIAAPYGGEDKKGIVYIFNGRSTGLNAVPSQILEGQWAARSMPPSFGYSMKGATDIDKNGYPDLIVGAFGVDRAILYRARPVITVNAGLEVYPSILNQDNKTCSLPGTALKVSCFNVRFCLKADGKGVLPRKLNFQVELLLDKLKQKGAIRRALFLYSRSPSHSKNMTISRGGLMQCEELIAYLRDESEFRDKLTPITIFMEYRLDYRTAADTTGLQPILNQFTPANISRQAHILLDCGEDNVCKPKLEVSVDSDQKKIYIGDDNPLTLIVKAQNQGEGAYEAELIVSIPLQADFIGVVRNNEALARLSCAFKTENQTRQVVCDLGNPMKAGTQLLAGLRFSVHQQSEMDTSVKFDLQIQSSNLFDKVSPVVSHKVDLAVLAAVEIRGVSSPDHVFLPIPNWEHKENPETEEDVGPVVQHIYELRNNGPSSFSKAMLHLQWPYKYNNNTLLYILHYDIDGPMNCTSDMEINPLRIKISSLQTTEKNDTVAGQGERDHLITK
# T1 sequence (P06756 891-1048 partner limits assumed): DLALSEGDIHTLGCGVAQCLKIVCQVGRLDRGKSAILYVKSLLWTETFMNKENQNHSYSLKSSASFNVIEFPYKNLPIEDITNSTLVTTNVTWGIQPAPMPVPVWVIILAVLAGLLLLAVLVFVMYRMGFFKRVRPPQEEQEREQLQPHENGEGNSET
# T1 sequence (P05106 27-788): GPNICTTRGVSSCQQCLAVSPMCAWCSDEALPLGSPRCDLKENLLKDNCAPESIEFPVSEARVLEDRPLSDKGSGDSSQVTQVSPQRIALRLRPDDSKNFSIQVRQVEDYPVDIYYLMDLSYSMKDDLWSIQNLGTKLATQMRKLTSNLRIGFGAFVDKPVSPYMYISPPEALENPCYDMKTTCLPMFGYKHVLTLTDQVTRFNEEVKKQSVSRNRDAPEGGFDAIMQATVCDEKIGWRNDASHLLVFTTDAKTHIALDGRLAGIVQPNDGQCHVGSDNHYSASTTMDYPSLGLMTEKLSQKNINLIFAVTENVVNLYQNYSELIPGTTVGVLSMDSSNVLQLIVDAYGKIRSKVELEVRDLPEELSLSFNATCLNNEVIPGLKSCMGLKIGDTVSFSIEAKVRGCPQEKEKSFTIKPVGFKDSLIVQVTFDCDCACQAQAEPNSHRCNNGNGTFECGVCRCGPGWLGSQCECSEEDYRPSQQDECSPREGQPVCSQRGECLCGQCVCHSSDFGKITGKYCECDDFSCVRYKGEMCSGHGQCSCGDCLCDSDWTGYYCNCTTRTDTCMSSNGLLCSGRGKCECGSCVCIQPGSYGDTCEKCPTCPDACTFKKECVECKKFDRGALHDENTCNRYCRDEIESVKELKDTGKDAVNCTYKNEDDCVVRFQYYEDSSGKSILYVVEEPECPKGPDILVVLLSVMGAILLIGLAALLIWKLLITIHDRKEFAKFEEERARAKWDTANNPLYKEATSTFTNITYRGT
substance,measurement,setting,value
vitronectin: natural high affinity ligand of αvβ3,coating concentration at which supported cell binding saturates,M21 melanoma cells,approximately 5 ug/ml
same,bound ligand that remained associated with αvβ3,αvβ3,greater than 65%
